Structures are written as SMILES. pEC50: −log10 of the molar value. A value given as a limit tells only on which side of the number the result lay.

The test relates to HBV viral production from HepAD38 cells. The test is described as follows: Activity of test compounds on viral production from HepAD38 cells (viral load by qPCR of HBV core sequence in supernatant). Type of test: cell-based. The following applies: Hepatitis B virus, 120 h, 5 days incubation, HBV DNA in supernatant by qPCR, top concentration 10 μM, read-out: Viral Load EC50 Activity range. The essentials:
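HepAD38 cells, 50,000/well in tetracycline-free 2% FBS medium, treated 5 days at 37° C. with compound from 10 μM top concentration. HBV DNA in supernatant quantified by TaqMan qPCR of core sequence against DNA standards, relative to DMSO wells; CellTiter-Glo viability read in parallel. EC50/CC50 from four-parameter logistic fit.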
Background: Real-time PCR tracks product formation cycle by cycle.
The pEC50 is the EC50 on a negative log10 scale, so that one unit is a factor of ten. As to `CN1[C@H](C(=O)Nc2ccc(F)c(Cl)c2)C[C@H](c2ncc(-c3c[nH]cn3)s2)NS1(=O)=O` [HBV-CSU-333-ISO-I, 5-(5-(1H-imidazol-4-yl)thiazol-2-yl)-N-(3-chloro-4-fluorophenyl)-2-methyl-1,2,6-thiadiazinane-3-carboxamide 1,1-dioxide], the pEC50 was greater than 6.00.
The figure for `CN1[C@H](C(=O)Nc2ccc(F)c(Cl)c2)C[C@H](c2cnc(-c3ccccc3)s2)NS1(=O)=O` [HBV-CSU-235-ISO-I, N-(3-Chloro-4-fluorophenyl)-2-methyl-5-(2-phenylthiazol-5-yl)-1,2,6-thiadiazinane-3-carboxamide 1,1-dioxide] is greater than 6.00; for `C=CCN1[C@H](C(=O)Nc2ccc(F)c(Cl)c2)C[C@H](c2nccs2)NS1(=O)=O` [HBV-CSU-094-ISO-II, Cis-2-Allyl-N-(3-chloro-4-fluorophenyl)-5-(thiazol-2-yl)-1,2,6-thiadiazinane-3-carboxamide 1,1-dioxide] it is greater than 6.00.
For `[2H]C1[C@]([2H])(C(=O)Nc2ccc(F)c(Cl)c2)N(C([2H])([2H])[2H])S(=O)(=O)N[C@]1([2H])c1ccc(Br)s1` (stereo in doubt) [HBV-CSU-372-ISO-II, Cis-5-(5-bromothiophen-2-yl)-N-(3-chloro-4-fluorophenyl)-2-(methyl-d3)-1,2,6-thiadiazinane-3,4,5-d3-3-carboxamide 1,1-dioxide], the pEC50 was 5.30 to 6.00.
For the compound `CN1[C@H](C(=O)Nc2ccc(F)c(Cl)c2)C[C@H](c2cc(-c3cncnc3)cs2)NS1(=O)=O` [HBV-CSU-290-ISO-I, Cis-N-(3-chloro-4-fluorophenyl)-2-methyl-5-(4-(pyrimidin-5-yl)thiophen-2-yl)-1,2,6-thiadiazinane-3-carboxamide 1,1-dioxide], the pEC50 is greater than 6.00.
Under `CN1C(C(=O)Nc2ccc(F)c(Cl)c2)CC(c2cc(Br)cs2)NS1(=O)=O` (centres unmarked) [HBV-CSU-146, 5-(4-Bromothiophen-2-yl)-N-(3-chloro-4-fluorophenyl)-2-methyl-1,2,6-thiadiazinane-3-carboxamide 1,1-dioxide] stands greater than 6.00; under `CN1[C@H](C(=O)Nc2ccc(F)c(Cl)c2)C[C@H](c2ccc(-c3ncn(C)n3)s2)NS1(=O)=O` [HBV-CSU-322-ISO-I, Cis-N-(3-Chloro-4-fluorophenyl)-2-methyl-5-(5-(1-methyl-1H-1,2,4-triazol-3-yl)thiophen-2-yl)-1,2,6-thiadiazinane-3-carboxamide 1,1-dioxide], greater than 6.00.
In the case of `CN1C(C(=O)Nc2ccc(F)c(C#N)c2)CC(c2cccs2)NS1(=O)=O` (racemic) [HBV-CSU-045, Cis-N-(3-cyano-4-fluorophenyl)-2-methyl-5-(thiophen-2-yl)-1,2,6-thiadiazinane-3-carboxamide 1,1-dioxide], the negative logarithm of the EC50 (pEC50) was greater than 6.00.
Under `Cc1sc(C2CC(C(=O)Nc3ccc(F)c(Cl)c3)N(C)S(=O)(=O)N2)cc1-c1cnn(C)c1` (racemic) [HBV-CSU-304, Cis-N-(3-Chloro-4-fluorophenyl)-2-methyl-5-(5-methyl-4-(1-methyl-1H-pyrazol-4-yl)thiophen-2-yl)-1,2,6-thiadiazinane-3-carboxamide 1,1-dioxide] stands greater than 6.00; under `Cc1nn(C)c(C)c1-c1csc([C@H]2C[C@@H](C(=O)Nc3ccc(F)c(Cl)c3)N(C)S(=O)(=O)N2)c1` [HBV-CSU-317-ISO-I, Cis-N-(3-chloro-4-fluorophenyl)-2-methyl-5-(4-(1,3,5-trimethyl-1H-pyrazol-4-yl)thiophen-2-yl)-1,2,6-thiadiazinane-3-carboxamide 1,1-dioxide], greater than 6.00.
For the compound `[2H]C([2H])([2H])N1[C@H](C(=O)Nc2ccc(F)c(Cl)c2)C[C@H](c2ncc(-c3cn(C)cn3)s2)NS1(=O)=O` [HBV-CSU-338-ISO-I, Cis-N-(3-Chloro-4-fluorophenyl)-2-(methyl-d3)-5-(5-(1-methyl-1H-imidazol-4-yl)thiazol-2-yl)-1,2,6-thiadiazinane-3-carboxamide 1,1-dioxide], the negative-log EC50 (pEC50) is greater than 6.00.
Regarding `CN1[C@H](C(=O)Nc2cc(Cl)cc(Cl)c2)C[C@H](c2cccs2)NS1(=O)=O` [HBV-CSU-047-ISO-I, Cis-N-(3,5-Dichlorophenyl)-2-methyl-5-(thiophen-2-yl)-1,2,6-thiadiazinane-3-carboxamide 1,1-dioxide], the pEC50 was greater than 6.00.
On to `CN1C(C(=O)Nc2ccc(F)c(Cl)c2)CC(c2ccc(-c3ccc(C(F)(F)F)nc3)s2)NS1(=O)=O` (racemic) [HBV-CSU-158, Cis-N-(3-chloro-4-fluorophenyl)-2-methyl-5-(5-(6-(trifluoromethyl)pyridin-3-yl)thiophen-2-yl)-1,2,6-thiadiazinane-3-carboxamide 1,1-dioxide], for which the pEC50 was 5.30 to 6.00.
`CN1C(C(=O)Nc2ccc(F)c(Cl)c2)CC(c2ncc(-c3ccccn3)s2)NS1(=O)=O` (racemic) [HBV-CSU-176, Cis-N-(3-chloro-4-fluorophenyl)-2-methyl-5-(5-(pyridin-2-yl)thiazol-2-yl)-1,2,6-thiadiazinane-3-carboxamide 1,1-dioxide]: the pEC50 was greater than 6.00.
Regarding `[2H]C1[C@]([2H])(c2ccc(-c3cn(C([2H])([2H])[2H])cn3)s2)NS(=O)(=O)N(C([2H])([2H])[2H])[C@]1([2H])C(=O)Nc1ccc(F)c(Cl)c1` (stereo in doubt) [HBV-CSU-378-ISO-I, Cis-N-(3-chloro-4-fluorophenyl)-2-(methyl-d3)-5-(5-(1-(methyl-d3)-1H-imidazol-4-yl)thiophen-2-yl)-1,2,6-thiadiazinane-3,4,5-d3-3-carboxamide 1,1-dioxide], the pEC50 is greater than 6.00.
The figure for `CN1[C@@H](C(=O)Nc2ccc(F)c(Cl)c2)C[C@@H](c2ccc(-c3cnn(CCO)c3)s2)NS1(=O)=O` [HBV-CSU-293-ISO-II, Cis-N-(3-chloro-4-fluorophenyl)-5-(5-(1-(2-hydroxyethyl)-1H-pyrazol-4-yl)thiophen-2-yl)-2-methyl-1,2,6-thiadiazinane-3-carboxamide 1,1-dioxide] is less than 5.30; for `CN1C(C(=O)Nc2ccc(F)c(Cl)c2)CC(c2ncc(-c3cccnc3)s2)NS1(=O)=O` (racemic) [HBV-CSU-175, Cis-N-(3-Chloro-4-fluorophenyl)-2-methyl-5-(5-(pyridin-3-yl)thiazol-2-yl)-1,2,6-thiadiazinane-3-carboxamide 1,1-dioxide] it is greater than 6.00.
`CN1C(C(=O)Nc2ccc(F)c(Cl)c2)CC(c2cccc(O)c2)NS1(=O)=O` (stereo not drawn) [HBV-CSU-205, Cis-N-(3-chloro-4-fluorophenyl)-5-(3-hydroxyphenyl)-2-methyl-1,2,6-thiadiazinane-3-carboxamide 1,1-dioxide]: the pEC50 was greater than 6.00.
For `CN1[C@H](C(=O)Nc2cccc(Br)c2)C[C@H](c2cccs2)NS1(=O)=O` [HBV-CSU-017-ISO-I, Cis-N-(3-Bromophenyl)-2-methyl-5-(thiophen-2-yl)-1,2,6-thiadiazinane-3-carboxamide 1,1-dioxide], the pEC50 was greater than 6.00.
The figure for `CN1C(C(=O)Nc2ccc(F)c(Cl)c2)CC(c2cc(-c3cncnc3)cs2)NS1(=O)=O` (racemic) [HBV-CSU-290, Cis-N-(3-chloro-4-fluorophenyl)-2-methyl-5-(4-(pyrimidin-5-yl)thiophen-2-yl)-1,2,6-thiadiazinane-3-carboxamide 1,1-dioxide] is greater than 6.00.
